Assay results: patent publication US20260232714A1, “COMPOSITION CONTAINING NICOTINAMIDE MONONUCLEOTIDE” (MEIJI HOLDINGS CO., LTD., priority 2023, published 2026)
“Also recorded” adds a separate entry of the source.

Test: Test 1: blood NMN concentration after oral or sublingual administration of NMN (plasma, LC-MS/MS)
Assay type: in vivo, human
Procedure: Tablets were used for oral administration. The content of NMN was 500 mg.
Powder was used for sublingual administration. The content of NMN was 250 mg.
One adult with no abnormal health conditions participated in the test. The test was conducted over two separate days.
Then, 250 mg of NMN (powder) was placed under the tongue, so that the powder was dissolved with saliva, and the test subject was maintained in that state. After 1 minute, the test subject spit out all NMN from the mouth, and blood was collected from the fingertip 5, 10, 15, and 30 minutes after the NMN was placed under the tongue.
NMN concentration was determined by LC-MS/MS. Details of the measurements are described below.
• Liquid A: 5 mM Ammonium formate aqueous solution • Liquid B: Acetonitrile

[1] = sublingual administration, in some test subjects

- maximum blood concentration [1]: ≥ 5 µg/mL
- time to reach the maximum blood concentration after administration [1]: about 5 minutes
SMILES: NC(=O)c1ccc[n+]([C@@H]2O[C@H](COP(=O)([O-])O)[C@@H](O)[C@H]2O)c1 [NMN, nicotinamide mononucleotide]
- blood NMN concentration compared with that observed before NMN ingestion (0 minute) (oral administration, one tablet 500 mg NMN with water, one adult, 5-60 minutes, plasma): virtually unchanged; also recorded: does not increase; also recorded: almost unchanged
